Reference: PMC9227096, “Design, Synthesis, and In Vitro, In Silico and In Cellulo Evaluation of New Pyrimidine and Pyridine Amide and Carbamate Derivatives as Multi-Functional Cholinesterase Inhibitors” (Pharmaceuticals, 2022)
Where two headings read alike, the source gives them in different places.

Tests used:
MTT cell viability assay = assay type: cell-based; conditions: human, U-87 MG glioblastoma astrocytoma cells, U-87 MG cells; for viability at 24 h, 10 µM: 10 µM (12 and 18: up to 10 µM)
Experimental: Compounds 12, 14 and 18 were tested to evaluate the cytotoxic effects on U-87 MG Cell Line from human brain (glioblastoma astrocytoma) at concentration ranging from 1 to 50 µM.
The compounds 12, 14 and 18 were evaluated for cell viability effects using the MTT assay. Briefly, U-87 MG Cell Line from human brain (glioblastoma astrocytoma) (ATCC, Manassas, VA, USA) were seeded into 96-well microtiter plates (NunclonTM, Nunc, Germany) at a density of 1.5 × 10^4 cells/well. […]. After an incubation time of 24 h, the medium was replaced by a new, fresh medium containing 0.5 mg/mL MTT (Sigma, Deisenhofen, Germany). After 2 h at 37 °C in 5%, CO2 unreacted dye was removed and the cells were dissolved by DMSO (Merck, Darmstadt, Germany). Absorbance was read at 570 nm by a microtiter spectrophotometer plate reader. The data were expressed as absorbance relative to untreated cells in the same experiment and standardized to 100%. All data points were performed in triplicate and at least three independent experiments.

Aβ42 peptide = target: T1, Aβ42 peptide (Homo sapiens, UniProt P05067); assay: Inhibition of Aβ42 aggregation in intact E. coli cells, thioflavin-S staining; assay type: cell-based, Escherichia coli; conditions: [I] = 100 µM, E. coli cells overexpressing Aβ42
T1 construct: expressed in transfected cells; host or cells: E. coli BL21 (DE3), pET28a vector
Experimental: For compounds 12, 14 and 18, the inhibitory activity against Aβ42 and tau aggregation was evaluated. The anti-aggregating effect of tested compounds was monitored by a cell-based assay in intact Escherichia coli cells that overexpress either Aβ42 peptide or tau protein, which, upon expression, form insoluble inclusion bodies that were stained with thioflavin-S [42]. The percentages of inhibition towards Aβ42 and tau aggregation were determined at an inhibitor concentration of 100 µM and the obtained results are reported in Table 6. In general, these compounds show a weak anti-aggregating activity; among these, the pyridine carbamate 18 is the best inhibitor of aggregation of both Aβ42 and tau.
E. coli competent cells BL21 (DE3) were transformed with the pET28a vector (Novagen, Inc., Madison, WI, USA) carrying the DNA sequence of Aβ42. Because of the addition of the initiation codon ATG in front of both genes, the overexpressed peptide contains an additional methionine residue at its N terminus. For overnight culture preparation, an amount of 10 mL of the M9 minimal medium containing 50 μg·mL^−1 of kanamycin was inoculated with a colony of BL21 (DE3) bearing the plasmid to be expressed at 37 °C. […]
Th-S (T1892) and other chemical reagents were purchased from Sigma (St. Louis, MO, USA). […] Th-S fluorescence and absorbance were tracked using a DTX 800 plate reader Multimode Detector equipped with a Multimode Analysis Software (Beckman-Coulter, Indianapolis, IN, USA). […] A filter of 535/25 nm was also used for the absorbance determination. To normalize the Th-S fluorescence as a function of the bacterial concentration, OD600 was obtained using a Shimadzu UV-2401 PC UV–Vis spectrophotometer (Shimadzu, Japan). Note that the fluorescence normalisation was carried out considering 100% of the Th-S fluorescence of the bacterial cells expressing the peptide or protein in the absence of the drug and 0% of the Th-S fluorescence of the bacterial cells not expressing the peptide or protein. […]

[1] = target: T2, Electrophorus electricus AChE (EeAChE) (Electrophorus electricus, UniProt O42275); assay: Ellman's spectrophotometric method, percent inhibition of EeAChE (zero time and after 1 h incubation); assay type: biochemical
T2 construct: purchased Sigma-Aldrich (Milan, Italy)
Experimental: Regarding the synthesized compounds enzymatic inhibition studies were carried out on Electrophorus electricus AChE (EeAChE) and equine BChE (eqBChE), according to Ellman’s spectrophotometric method.
All other chemical and biological reagents and solvents used were of the highest analytical, commercially available grade. The water, utilized for the preparation of the phosphate buffer and of the solutions of compounds, was distilled and filtered on nylon membrane filters with 0.2 μm pore size with the Millipore® Filtration apparatus before each use. Micropipettes Labmate (BRAND Dig. 10–100 μL; Dig. 100–1000 μL; Dig. 0.1–2 μL) and Transferpette (HIGH TECH LAB LM200: 20–200 μL; LM5000: 1000–5000 μL) were used to collect the samples. The assays were carried out by double beam UV–Vis Lambda 40 Perkin Elmer spectrophotometer, using optical polystyrene cuvettes (10 × 10 × 45 mm, 340–800 nm optical transparency), each measure was repeated at least in triplicate. […] Vivaspin® 2 Sartorius, with a membrane of 3000 MWCO (molecular weight cutoff) consisting of polyethersulfone (PES), cellulose triacetate (CTA) and hydrosart, was used for the ultrafiltration procedures. An ALC PK110 bench-top centrifuge was used for centrifugation. The spectrophotometric method of Ellman, with minor modifications, was used to evaluate the inhibition of cholinesterase enzymes. […] EeAChE and eqBChE were periodically tested to evaluate the effective enzymatic activity.
An amount of 3.0 mL of a solution in 0.1 M phosphate buffer (pH = 7.4) containing DTNB (0.25 mM) and EeAChE (0.083 UmL^−1) or eqBChE (0.083 UmL^−1) were placed in a polystyrene cuvette of 1.0 cm path length; 1 µL of a solution in DMSO of the tested compound was added to obtain in cuvette concentration range 9 µM–0.09 µM. With this solution the blank was made.
Each experiment was repeated at least in triplicate.
The cuvettes were prepared consecutively at intervals of 3 min to allow equal incubation times.

[2] = read-out: % Inhibition vs. EeAChE ± SD, [I] 9 µM, 0.0833 U/mL enzyme, 100 µM acetylthiocholine

T1 sequence (P05067 672-713 limits assumed): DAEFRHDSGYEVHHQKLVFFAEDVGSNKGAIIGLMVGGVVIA
T2 sequence (O42275 24-633): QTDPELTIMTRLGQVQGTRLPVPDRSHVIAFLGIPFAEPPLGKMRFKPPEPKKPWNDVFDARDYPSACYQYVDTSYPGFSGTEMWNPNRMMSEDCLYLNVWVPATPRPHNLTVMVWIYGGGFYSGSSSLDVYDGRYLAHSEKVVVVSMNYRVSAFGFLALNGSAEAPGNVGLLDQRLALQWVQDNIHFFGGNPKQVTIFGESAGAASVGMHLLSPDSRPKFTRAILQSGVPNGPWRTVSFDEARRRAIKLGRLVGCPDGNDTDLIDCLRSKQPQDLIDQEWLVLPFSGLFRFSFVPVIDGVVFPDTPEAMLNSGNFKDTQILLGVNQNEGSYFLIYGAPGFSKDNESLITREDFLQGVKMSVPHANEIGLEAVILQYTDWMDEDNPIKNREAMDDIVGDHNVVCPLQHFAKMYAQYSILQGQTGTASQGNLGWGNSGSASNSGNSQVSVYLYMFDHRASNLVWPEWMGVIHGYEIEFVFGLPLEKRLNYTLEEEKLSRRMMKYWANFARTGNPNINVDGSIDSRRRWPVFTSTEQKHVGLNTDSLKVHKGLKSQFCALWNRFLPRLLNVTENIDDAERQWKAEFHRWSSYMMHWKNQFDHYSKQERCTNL

O=C(NCCCCCCNc1ccccn1)c1ccccc1 [Compound 12, N-(6-(pyridin-2-ylamino)hexyl)benzamide]
viability at 24 h, 10 µM (MTT cell viability assay): > 90% | viability at 24 h, 50 µM (MTT cell viability assay): > 35% | inhibition at 100 µM (Aβ42 peptide): 11.9% | % Inhibition vs. EeAChE ± SD ([1]; [I] 9 µM, 0.0833 U/mL enzyme, 100 µM acetylthiocholine): 34.0 ± 2.1% | inhibition at 9 µM [1, 2]: 34%

O=C(Cc1ccc(Oc2ccccc2)cc1)NCCCCCCNc1ccccn1 [Compound 14, 2-(4-phenoxyphenyl)-N-(6-(pyridin-2-ylamino)hexyl)acetamide]
viability at 24 h, 10 µM (MTT cell viability assay): > 65% | viability at 24 h, 50 µM (MTT cell viability assay): > 30% | inhibition at 100 µM (Aβ42 peptide): 13.3% | inhibition at 9 µM [1, 2]: 42.6 ± 1.4%

O=C(NCCCCCCNc1ccccn1)Oc1ccccc1 [Compound 18, Phenyl (6-(pyridin-2-ylamino)hexyl)carbamate]
viability at 24 h, 10 µM (MTT cell viability assay): > 90% | viability at 24 h, 50 µM (MTT cell viability assay): > 35% | inhibition at 100 µM (Aβ42 peptide): 23.1% | inhibition at 9 µM ([1]; 1 h, read-out: % Inhibition vs. EeAChE ± SD, [I] = 9 µM, t = 1 h incubation at 25 °C): 41.6 ± 0.7%
